pIC50: −log10 of the molar value.

Chain of human LPA1 (Q92633 whole entry): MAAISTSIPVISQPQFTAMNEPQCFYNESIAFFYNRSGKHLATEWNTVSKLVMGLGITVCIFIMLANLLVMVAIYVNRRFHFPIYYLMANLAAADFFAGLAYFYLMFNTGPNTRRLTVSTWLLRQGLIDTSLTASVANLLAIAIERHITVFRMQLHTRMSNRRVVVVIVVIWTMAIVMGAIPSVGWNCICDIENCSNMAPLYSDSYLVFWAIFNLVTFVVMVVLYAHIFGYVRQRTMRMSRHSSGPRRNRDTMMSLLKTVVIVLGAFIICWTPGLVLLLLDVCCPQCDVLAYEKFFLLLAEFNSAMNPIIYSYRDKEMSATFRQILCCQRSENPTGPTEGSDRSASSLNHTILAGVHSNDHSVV

The assay has as its target human LPA1 (Homo sapiens, UniProt Q92633). Nature of the assay: In vitro functional assay of lysophosphatidic acid receptor 1 activity (calcium flux). The format is cell-based. The note with it: B103 cells stably expressing human LPA1; Fluo-4 NW calcium flux after lysophosphatidic acid (18:1) at EC80; compounds 100 pM to 10 μM; read-out: LPA1 IC50. In outline:
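B103 cells stably expressing human LPA1 plated onto compound for 24 h at 37 °C, loaded with Fluo-4 NW dye, re-exposed to compound (30 min 37 °C plus 30 min room temp).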
A general note: Calcium assays in cells follow changes in intracellular calcium, usually with a dye or a luminescent sensor.
As to `CC(C)c1ccccc1C1(C(=O)Nc2cnc(C(F)F)cc2OC(F)F)CC(=O)N(C)C1` (stereo not drawn) [Example 4, N-(4-(difluoromethoxy)-6-(difluoromethyl)pyridin-3-yl)-3-(2-isopropylphenyl)-1-methyl-5-oxopyrrolidine-3-carboxamide], the pIC50 (as a rule, the negative decadic logarithm of the IC50, by convention in mol/L) was 6.00 to 7.00.
In the case of `COc1cc(Cl)cnc1NC(=O)C1(c2ccccc2C(C)C)COC1` [Example 20, N-(5-chloro-3-methoxypyridin-2-yl)-3-(2-isopropylphenyl)oxetane-3-carboxamide] it was less than 6.00.
In the case of `COc1ccc(NC(=O)C2(c3ccccc3C(C)C)CCC(S(C)(=O)=O)CC2)c(OC(F)F)n1` (stereo not drawn) [Example 100, N-(2-(difluoromethoxy)-6-methoxypyridin-3-yl)-1-(2-isopropylphenyl)-4-(methylsulfonyl)cyclohexane-1-carboxamide], the pIC50 is 6.00 to 7.00.
Take `COc1ccc(NC(=O)C2(c3ccccc3C(C)C)CCC(C)(O)CC2)c(OC(F)F)n1` (single isomer, unassigned) [Example 83-isomer A, N-(2-(difluoromethoxy)-6-methoxypyridin-3-yl)-4-hydroxy-1-(2-isopropylphenyl)-4-methylcyclohexane-1-carboxamide]: the pIC50 was less than 6.00.
In the case of `Cc1ccc(NC(=O)C2(c3ncccc3C(C)C)CC(O)C2)c(OC(F)F)n1` (mixture of isomers) [Example 57, N-(2-(difluoromethoxy)-6-methylpyridin-3-yl)-3-hydroxy-1-(3-isopropylpyridin-2-yl)cyclobutane-1-carboxamide] it was 7.00 to 8.00; in that of `CCOCN1CC(C(=O)Nc2ncc(Cl)cc2OC(F)F)(c2ccccc2C(C)C)CC1=O` (stereo not drawn) [Example 11, N-(5-chloro-3-(difluoromethoxy)pyridin-2-yl)-1-(ethoxymethyl)-3-(2-isopropylphenyl)-5-oxopyrrolidine-3-carboxamide], 6.00 to 7.00.

The record behind these values is patent publication US20250179045A1, “LPAR1 ANTAGONISTS AND USES THEREOF” (Contineum Therapeutics, Inc., priority 2021, published 2025).
